Blank lines part the entries; values can stand above or below the molecule they belong to. The source made the active and inactive calls. The rule behind the calls is not given here.
How the values were obtained:
[1] = test system: MDA-MB-231; assay: Cytotoxicity against human MDA-MB-231 cells assessed as cell viability after 5 days by MTT assay; assay type: functional, cell-based; conditions: MDA-MB-231, 120 h
[2] = test system: MCF7; assay: Upregulation of p53 mRNA expression in human MCF7 cells at 0.1 to 1 uM after 12 hrs by RT-PCR analysis; assay type: functional, cell-based
[3] = test system: MCF7; assay: Cytotoxicity against human MCF7 cells assessed as reduction of colony formation at 0.1 uM after 14 days by MTT staining-based anchorage-independant soft agar assay; assay type: functional, cell-based
[4] = Cytotoxicity against rat R2C cells assessed as growth inhibition by MTT assay; assay type: functional, cell-based
[5] = Upregulation of p53 expression in human MCF10A cells at 1 uM after 48 hrs by Western blot analysis; assay type: ADME, cell-based; conditions: mcf-10a
[6] = test system: MCF7; assay: Cytotoxicity against human MCF7 cells assessed as growth inhibition at 1 uM after 5 days by MTT assay relative to vehicle-treated control; assay type: functional; conditions: MCF7, 120 h, read-out: GI
[7] = Cytotoxicity against human MCF10A cells assessed as cell viability after 5 days by MTT assay; assay type: cell-based; conditions: MCF-10A, 120 h
[8] = test system: HeLa; assay: Cytotoxicity against human HeLa cells assessed as growth inhibition by MTT assay; assay type: functional, cell-based
[9] = test system: MDA-MB-231; assay: Induction of apoptosis in human MDA-MB-231 cells assessed as DNA fragmentation at 1 uM after 48 hrs by DNA laddering assay; assay type: functional, cell-based
[10] = test system: MCF7; assay: Cytotoxicity against human MCF7 cells assessed as cell viability after 5 days by MTT assay; assay type: functional, cell-based; conditions: MCF7, 120 h
[11] = test system: MCF-7 TR1; assay: Cytotoxicity against human MCF-7 TR1 cells assessed as reduction of cell vitality at 0.1 to 1 uM after 3 to 5 days by MTT assay; assay type: functional, cell-based
[12] = test system: MDA-MB-231; assay: Cytotoxicity against human MDA-MB-231 cells assessed as reduction of colony formation at 0.1 uM after 14 days by MTT staining-based anchorage-independant soft agar assay; assay type: functional, cell-based
[13] = molecular target: Cellular tumor antigen p53 (Homo sapiens) (UniProt P04637); assay: Activation of p53 in human MCF7 cells assessed as upregulation of […]/WAF1 gene expression at 0.1 to 1 uM after 24 hrs by dual luciferase reporter gene assay; assay type: cell-based
[14] = test system: MCF-7 TR1; assay: Cytotoxicity against human MCF-7 TR1 cells assessed as reduction of colony formation at 1 uM after 14 days by MTT staining-based anchorage-independant soft agar assay; assay type: functional, cell-based
[15] = Upregulation of p53 expression in human MCF-7 TR1 cells at 1 uM after 48 hrs by Western blot analysis; assay type: functional, cell-based
[16] = test system: MCF7; assay: Upregulation of p53 expression in human MCF7 cells after 48 hrs by Western blot analysis; assay type: functional, cell-based
[17] = Upregulation of p53 expression in human MCF-7 TR1 cells at 0.1 uM after 48 hrs by Western blot analysis; assay type: functional, cell-based
[18] = test system: MCF7; assay: Cytotoxicity against human MCF7 cells assessed as reduction of colony formation at 1 uM after 14 days by MTT staining-based anchorage-independant soft agar assay; assay type: functional, cell-based
[19] = molecular target: Cellular tumor antigen p53 (Homo sapiens) (UniProt P04637); assay: Activation of p53 in human MCF7 cells assessed as upregulation of […]/WAF1 gene expression at 1 uM after 24 hrs by dual luciferase reporter gene assay; assay type: cell-based
[20] = test system: MCF-7 TR1; assay: Induction of apoptosis in human MCF-7 TR1 cells assessed as PARP proteolysis at 1 uM after 48 hrs by Western blot analysis; assay type: functional, cell-based
[21] = test system: MCF7; assay: Induction of apoptosis in human MCF7 cells assessed as PARP proteolysis at 1 uM after 48 hrs by Western blot analysis; assay type: functional, cell-based
[22] = molecular target: DNA topoisomerase 2-alpha (Homo sapiens) (UniProt P11388); assay: Inhibition of human topoisomerase 2 assessed as decatenation of kDNA after 30 mins by agarose gel electrophoresis
[23] = test system: Ishikawa; assay: Cytotoxicity against human Ishikawa cells assessed as growth inhibition by MTT assay; assay type: functional, cell-based
[24] = test system: MDA-MB-231; assay: Cytotoxicity against human MDA-MB-231 cells assessed as growth inhibition at 1 uM after 5 days by MTT assay relative to vehicle-treated control; assay type: functional
[25] = molecular target: Cellular tumor antigen p53 (Homo sapiens) (UniProt P04637); assay: Activation of p53 in human MDA-MB-231 cells assessed as upregulation of […]/WAF1 mRNA expression at 1 uM after 12 hrs by RT-PCR analysis; assay type: cell-based
[26] = molecular target: Cellular tumor antigen p53 (Homo sapiens) (UniProt P04637); assay: Activation of p53 in human MCF-7 TR1 cells assessed as upregulation of […]/WAF1 gene expression at 0.1 uM after 48 hrs by Western blot analysis; assay type: cell-based
[27] = test system: MDA-MB-231; assay: Upregulation of p53 expression in human MDA-MB-231 cells after 48 hrs by Western blot analysis; assay type: functional, cell-based
[28] = test system: MDA-MB-231; assay: Upregulation of p53 mRNA expression in human MDA-MB-231 cells at 0.1 to 1 uM after 12 hrs by RT-PCR analysis; assay type: functional, cell-based
[29] = molecular target: Cellular tumor antigen p53 (Homo sapiens) (UniProt P04637); assay: Activation of p53 in human MDA-MB-231 cells assessed as upregulation of […]/WAF1 mRNA expression at 0.1 uM after 12 hrs by RT-PCR analysis; assay type: cell-based
[30] = molecular target: Cellular tumor antigen p53 (Homo sapiens) (UniProt P04637); assay: Activation of p53 in human MCF7 cells assessed as upregulation of […]/WAF1 gene expression at 0.1 uM after 24 hrs by dual luciferase reporter gene assay; assay type: cell-based
[31] = Induction of apoptosis in human MCF10A cells assessed as PARP proteolysis at 1 uM after 48 hrs by Western blot analysis; assay type: cell-based; conditions: mcf-10a
[32] = test system: MDA-MB-231; assay: Induction of p53 consensus sequences deficient […]/WAF1 promoter activity in human MDA-MB-231 cells at 0.1 to 1 uM after 24 hrs by dual luciferase reporter gene assay; assay type: cell-based
[33] = test system: MCF-7 TR1; assay: Induction of apoptosis in human MCF-7 TR1 cells assessed as DNA fragmentation at 1 uM after 48 hrs by DNA laddering analysis; assay type: functional, cell-based
[34] = Cytotoxicity against human MCF10A cells assessed as growth inhibition at 1 uM after 5 days by MTT assay relative to vehicle-treated control; assay type: cell-based; conditions: mcf-10a, 120 h
[35] = molecular target: T1, DNA topoisomerase 1 (Homo sapiens) (UniProt P11387); assay: Inhibition of recombinant human topoisomerase 1 assessed as relaxation of supercoiled pHOT1 at 50 uM after 30 mins by agarose gel electrophoresis
T1 sequence (whole entry): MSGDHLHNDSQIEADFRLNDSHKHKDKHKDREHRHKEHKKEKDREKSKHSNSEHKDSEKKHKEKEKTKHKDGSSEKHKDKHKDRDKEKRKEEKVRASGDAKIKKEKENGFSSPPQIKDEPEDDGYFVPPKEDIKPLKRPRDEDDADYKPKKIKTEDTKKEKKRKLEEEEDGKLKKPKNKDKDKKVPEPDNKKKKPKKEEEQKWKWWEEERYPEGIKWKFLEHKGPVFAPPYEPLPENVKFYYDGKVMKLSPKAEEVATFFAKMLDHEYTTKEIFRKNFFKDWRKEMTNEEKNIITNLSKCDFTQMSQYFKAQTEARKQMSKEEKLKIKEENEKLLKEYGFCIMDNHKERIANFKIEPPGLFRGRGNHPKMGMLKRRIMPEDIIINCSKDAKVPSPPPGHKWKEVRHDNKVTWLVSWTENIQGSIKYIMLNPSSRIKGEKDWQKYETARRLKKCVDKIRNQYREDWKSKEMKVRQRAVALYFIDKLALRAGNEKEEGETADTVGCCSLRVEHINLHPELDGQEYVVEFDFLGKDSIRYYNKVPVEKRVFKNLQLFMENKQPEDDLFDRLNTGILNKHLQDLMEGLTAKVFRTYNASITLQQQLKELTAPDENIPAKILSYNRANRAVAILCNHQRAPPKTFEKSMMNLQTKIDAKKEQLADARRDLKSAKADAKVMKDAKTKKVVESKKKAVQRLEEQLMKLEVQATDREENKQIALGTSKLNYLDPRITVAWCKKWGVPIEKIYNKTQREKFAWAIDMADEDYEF

[36] = molecular target: Cellular tumor antigen p53 (Homo sapiens) (UniProt P04637); assay: Activation of p53 in human MCF7 cells assessed as upregulation of […]/WAF1 mRNA expression at 1 uM after 12 hrs by RT-PCR analysis; assay type: cell-based
[37] = test system: HepG2; assay: Cytotoxicity against human HepG2 cells assessed as growth inhibition by MTT assay; assay type: functional, cell-based
[38] = molecular target: Cellular tumor antigen p53 (Homo sapiens) (UniProt P04637); assay: Activation of p53 in human MCF7 cells assessed as upregulation of […]/WAF1 gene expression at 1 uM by dual luciferase reporter gene assay in presence of p53 siRNA; assay type: cell-based
[39] = test system: MCF7; assay: Induction of p53 consensus sequences deficient […]/WAF1 promoter activity in human MCF7 cells at 0.1 uM after 24 hrs by dual luciferase reporter gene assay; assay type: cell-based
[40] = molecular target: Cellular tumor antigen p53 (Homo sapiens) (UniProt P04637); assay: Activation of p53 in human MCF7 cells assessed as upregulation of […]/WAF1 mRNA expression at 0.1 uM after 12 hrs by RT-PCR analysis; assay type: cell-based
[41] = molecular target: Cellular tumor antigen p53 (Homo sapiens) (UniProt P04637); assay: Activation of p53 in human MCF-7 TR1 cells assessed as upregulation of […]/WAF1 gene expression at 1 uM after 48 hrs by Western blot analysis; assay type: cell-based
[42] = Cytotoxicity against human MCF-7 TR1 cells assessed as cell colony formation after 14 days by crystal violet staining-based assay; assay type: functional; conditions: MCF-7 TR1, 336 h
[43] = molecular target: Cellular tumor antigen p53 (Homo sapiens) (UniProt P04637); assay: Activation of p53 in human MDA-MB-231 cells assessed as upregulation of […]/WAF1 expression after 48 hrs by Western blot analysis; assay type: cell-based
[44] = Upregulation of p53 expression in human MCF10A cells at 0.1 uM after 48 hrs by Western blot analysis; assay type: ADME, cell-based; conditions: mcf-10a
[45] = test system: MDA-MB-231; assay: Cytotoxicity against human MDA-MB-231 cells assessed as reduction of colony formation at 1 uM after 14 days by MTT staining-based anchorage-independant soft agar assay; assay type: functional, cell-based
[46] = molecular target: T1, DNA topoisomerase 1 (Homo sapiens); assay: Inhibition of recombinant human topoisomerase 1 assessed as relaxation of supercoiled pHOT1 at 10 uM after 30 mins by agarose gel electrophoresis
[47] = test system: MCF7; assay: Induction of p53 consensus sequences deficient […]/WAF1 promoter activity in human MCF7 cells at 1 uM after 24 hrs by dual luciferase reporter gene assay; assay type: cell-based
[48] = molecular target: Cellular tumor antigen p53 (Homo sapiens) (UniProt P04637); assay: Activation of p53 in human MCF7 cells assessed as upregulation of […]/WAF1 expression after 48 hrs by Western blot analysis; assay type: cell-based
[49] = test system: MCF7; assay: Induction of apoptosis in human MCF7 cells assessed as DNA fragmentation at 1 uM after 48 hrs by DNA laddering assay; assay type: functional, cell-based
[50] = Induction of apoptosis in human MCF10A cells assessed as DNA fragmentation at 1 uM after 48 hrs by DNA laddering assay; assay type: cell-based; conditions: mcf-10a

Sequence of Cellular tumor antigen p53 (Homo sapiens) (P04637 whole entry, looked up): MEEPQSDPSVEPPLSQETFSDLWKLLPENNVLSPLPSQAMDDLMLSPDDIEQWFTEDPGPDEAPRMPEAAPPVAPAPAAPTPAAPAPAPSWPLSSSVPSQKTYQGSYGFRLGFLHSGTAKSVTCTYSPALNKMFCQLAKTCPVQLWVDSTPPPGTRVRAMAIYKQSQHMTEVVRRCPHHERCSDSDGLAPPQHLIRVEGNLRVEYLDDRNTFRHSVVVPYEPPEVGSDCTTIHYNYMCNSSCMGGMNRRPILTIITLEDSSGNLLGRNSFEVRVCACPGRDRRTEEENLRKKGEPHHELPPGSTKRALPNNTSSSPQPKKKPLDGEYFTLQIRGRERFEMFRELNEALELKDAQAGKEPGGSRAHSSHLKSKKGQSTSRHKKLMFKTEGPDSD
Sequence of DNA topoisomerase 2-alpha (Homo sapiens) (P11388 whole entry): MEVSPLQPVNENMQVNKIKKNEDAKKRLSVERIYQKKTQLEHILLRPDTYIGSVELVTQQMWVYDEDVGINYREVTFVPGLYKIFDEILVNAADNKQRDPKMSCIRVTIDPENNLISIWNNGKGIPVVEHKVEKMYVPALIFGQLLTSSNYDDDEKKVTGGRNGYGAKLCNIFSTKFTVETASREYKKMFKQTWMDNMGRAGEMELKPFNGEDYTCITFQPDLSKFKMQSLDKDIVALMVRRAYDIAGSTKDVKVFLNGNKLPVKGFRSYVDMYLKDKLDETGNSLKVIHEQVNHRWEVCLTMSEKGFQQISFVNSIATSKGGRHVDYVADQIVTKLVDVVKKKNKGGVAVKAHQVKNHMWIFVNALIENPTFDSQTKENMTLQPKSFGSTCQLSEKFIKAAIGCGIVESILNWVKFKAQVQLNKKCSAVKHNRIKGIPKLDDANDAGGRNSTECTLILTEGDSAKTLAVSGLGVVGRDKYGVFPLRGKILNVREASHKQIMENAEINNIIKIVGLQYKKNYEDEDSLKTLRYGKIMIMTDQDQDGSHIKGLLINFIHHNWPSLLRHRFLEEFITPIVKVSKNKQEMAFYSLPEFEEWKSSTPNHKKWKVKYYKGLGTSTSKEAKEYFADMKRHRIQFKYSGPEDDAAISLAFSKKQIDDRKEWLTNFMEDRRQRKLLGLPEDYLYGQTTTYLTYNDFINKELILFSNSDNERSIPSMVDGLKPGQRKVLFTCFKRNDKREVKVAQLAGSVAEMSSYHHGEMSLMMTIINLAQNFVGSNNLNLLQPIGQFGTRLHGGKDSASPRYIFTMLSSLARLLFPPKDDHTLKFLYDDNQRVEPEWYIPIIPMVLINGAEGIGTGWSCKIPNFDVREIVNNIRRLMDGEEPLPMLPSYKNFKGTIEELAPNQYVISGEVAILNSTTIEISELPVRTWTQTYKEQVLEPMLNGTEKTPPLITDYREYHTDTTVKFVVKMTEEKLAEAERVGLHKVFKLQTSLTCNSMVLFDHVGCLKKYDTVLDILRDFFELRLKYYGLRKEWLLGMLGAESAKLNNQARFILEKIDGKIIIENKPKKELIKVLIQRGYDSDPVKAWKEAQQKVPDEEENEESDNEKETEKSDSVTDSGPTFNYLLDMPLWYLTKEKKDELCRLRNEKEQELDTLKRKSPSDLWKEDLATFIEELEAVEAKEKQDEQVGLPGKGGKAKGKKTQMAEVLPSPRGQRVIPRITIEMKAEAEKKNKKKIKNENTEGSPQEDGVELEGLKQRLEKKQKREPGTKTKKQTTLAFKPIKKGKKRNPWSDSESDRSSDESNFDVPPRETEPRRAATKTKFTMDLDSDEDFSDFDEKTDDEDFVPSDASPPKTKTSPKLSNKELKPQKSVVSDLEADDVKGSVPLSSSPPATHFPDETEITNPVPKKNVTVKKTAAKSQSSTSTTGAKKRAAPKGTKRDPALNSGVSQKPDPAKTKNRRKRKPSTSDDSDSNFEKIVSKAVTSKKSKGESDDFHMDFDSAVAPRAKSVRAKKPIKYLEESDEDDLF

Activity [13]: inactive | Activity [19]: Active | inhibition [22]: Dose-dependent effect | Activity [25]: Active | Activity [26]: Active | Activity [29]: Active | Activity [30]: Active | inhibition [35]: inactive | Activity [36]: Active | Activity [38]: inactive | Activity [40]: Active | Activity [41]: Active | Activity [43]: Dose-dependent effect | inhibition [46]: inactive | Activity [48]: Dose-dependent effect
SMILES: CCCN(CCC)c1nc2c(O)cc3c4ccccc4oc3c2c(=O)[nH]1
IC50 [1]: 650 nM | Activity [2]: inactive | Activity [3]: Active | IC50 [4]: 1200 nM | Activity [5]: Non-toxic | inhibition of growth at 1 µM [6]: 58% | IC50 [7]: 33 µM | IC50 [8]: 700 nM | Activity [9]: Active | IC50 [10]: 660 nM | Activity [11]: Active | Activity [12]: Active | Activity [14]: Active | Activity [15]: Active | Activity [16]: Dose-dependent effect | Activity [17]: Active | Activity [18]: Active | Activity [20]: Active | Activity [21]: inactive | IC50 [23]: 980 nM | inhibition of growth at 1 µM ([24]; MDA-MB-231, 120 h, read-out: GI): 60% | Activity [27]: Dose-dependent effect | Activity [28]: inactive | Activity [31]: Non-toxic | Activity [32]: Active | Activity [33]: Active | Activity [34]: Non-toxic | IC50 [37]: 890 nM | Activity [39]: inactive | IC50 [42]: 1000 nM | Activity [44]: Non-toxic | Activity [45]: Active | Activity [47]: inactive | Activity [49]: Active | Activity [50]: Non-toxic

SMILES: CCCCN(CCCC)c1nc2c(OC)cc3c4ccccc4oc3c2c(=O)[nH]1
inhibition of growth at 1 µM [6]: 25% | growth inhibition (GI) [24]: Active | Activity [34]: Non-toxic

SMILES: CCCCN(CCCC)c1nc2ccc3c4ccccc4oc3c2c(=O)[nH]1
inhibition of growth at 1 µM [6]: 15% | growth inhibition (GI) [24]: Active | Activity [34]: Non-toxic

SMILES: CCCN(CCC)c1nc2ccc3c4ccccc4oc3c2c(=O)[nH]1
inhibition of growth at 1 µM [6]: 25% | growth inhibition (GI) [24]: Active | Activity [34]: Non-toxic

From ChEMBL document CHEMBL3758098, “3-(Dipropylamino)-5-hydroxybenzofuro[2,3-f]quinazolin-1(2H)-one (DPA-HBFQ-1) plays an inhibitory role on breast cancer cell growth and progression” (Eur J Med Chem, 2016)
